The values below come from publication PMC8286840, “Identifying SARS-CoV-2 antiviral compounds by screening for small molecule inhibitors of Nsp3 papain-like protease” (Biochemical Journal, 2021).

For test [1], the target named is T1, SARS-CoV-2 PLpro (nsp3 1564–1878) (Severe acute respiratory syndrome coronavirus 2, UniProt P0DTD1). In words: biochemical. More on the design: FRET-quenched peptide (Pro3) cleavage by PLpro, 10 min pre-incubation, slope over 20 min, normalised to no-compound control. To be noted: low concentration screen, read-out: % of control remaining.
Test [2] concerns the target T1, SARS-CoV-2 PLpro (nsp3 1564–1878). Description: biochemical. To be noted: high concentration screen, read-out: % of control remaining. More on the design: FRET-quenched peptide (Pro3) cleavage by PLpro, 10 min pre-incubation, slope over 20 min, normalised to no-compound control.

Structures can show the parent of a compound that is named as a salt. Where two headings read alike, the source gives them in different places.

On to `CC1(C)S[C@@H]2[C@H](NC(=O)[C@H](N)c3ccccc3)C(=O)N2[C@H]1C(=O)O` [Ampicillin], for which the remaining activity at 1.25 µM in test [1] (Well no.=2123) came out at 97.8%. Further, in test [2] (Well no.=2123), the remaining activity at 3.75 µM amounted to 97.3%.
Take `CCOC(=O)OC(C)OC1=C(C(=O)Nc2ccccn2)N(C)S(=O)(=O)c2ccccc21` (stereo not drawn) [Ampiroxicam]: in test [1] (Well no.=2125), the remaining activity at 1.25 µM came to 101%. Further, the remaining activity at 3.75 µM in test [2] (Well no.=2125) stood at 103%.
As for `CC(C)CN(C[C@@H](O)[C@H](Cc1ccccc1)NC(=O)O[C@H]1CCOC1)S(=O)(=O)c1ccc(N)cc1` [Amprenavir], the remaining activity at 1.25 µM was 101% in test [1] (Well no.=2242) and 94.1% in test [1] (Well no.=8648). Further, the remaining activity at 3.75 µM in test [2] (Well no.=2242) is 102%; in test [2] (Well no.=8648), 95.7%.
With `CCCc1ncc(C[n+]2ccccc2C)c(N)n1` [Amprolium HCl], in test [1] (Well no.=8588), the remaining activity at 1.25 µM turned out to be 106%. In addition, in test [2] (Well no.=8588), the remaining activity at 3.75 µM stood at 108%.
`COc1cc(NS(C)(=O)=O)ccc1Nc1c2ccccc2nc2ccccc12` [Amsacrine hydrochloride]: the remaining activity at 1.25 µM in test [1] (Well no.=346) was determined as 97.8%. Moreover, the remaining activity at 3.75 µM in test [2] (Well no.=346) came out at 103%.
`N#C[C@H](O[C@@H]1O[C@H](CO[C@@H]2O[C@H](CO)[C@@H](O)[C@H](O)[C@H]2O)[C@@H](O)[C@H](O)[C@H]1O)c1ccccc1` [Amygdalin]: the remaining activity at 1.25 µM in test [1] (Well no.=3472) came to 100%. Also, in test [2] (Well no.=3472), the remaining activity at 3.75 µM is 102%.
Regarding `COc1cc(F)c(C(C)C)cc1-c1ccc(C(F)(F)F)cc1CN1C(=O)O[C@H](c2cc(C(F)(F)F)cc(C(F)(F)F)c2)[C@@H]1C` [Anacetrapib (MK-0859)], in test [1] (Well no.=5312), the remaining activity at 1.25 µM was 94.2%. In addition, the remaining activity at 3.75 µM in test [2] (Well no.=5312) came to 93.1%.
In the case of `O=C1CN2Cc3c(ccc(Cl)c3Cl)N=C2N1` [Anagrelide HCl], the remaining activity at 1.25 µM in test [1] (Well no.=5022) was 93.8%. Also, in test [2] (Well no.=5022), the remaining activity at 3.75 µM was 99%.
As to `O=C1CN2Cc3c(ccc(Cl)c3Cl)N=C2N1` [Anagrelide], in test [1] (Well no.=1629), the remaining activity at 1.25 µM is 95.8%. Moreover, in test [2] (Well no.=1629), the remaining activity at 3.75 µM came to 97.6%.
As for `CN(C)N(C)C(=O)[C@@]1(Cc2ccccc2)CCCN(C(=O)[C@@H](Cc2c[nH]c3ccccc23)NC(=O)C(C)(C)N)C1` [Anamorelin (hydrochloride)], the remaining activity at 1.25 µM in test [1] (Well no.=7291) is 98.3%. The remaining activity at 3.75 µM in test [2] (Well no.=7291) was 97.8%.
Turning to `CN(C)N(C)C(=O)[C@@]1(Cc2ccccc2)CCCN(C(=O)[C@@H](Cc2c[nH]c3ccccc23)NC(=O)C(C)(C)N)C1` [Anamorelin], the remaining activity at 1.25 µM in test [1] (Well no.=8437) came to 97.3%. Further, the remaining activity at 3.75 µM in test [2] (Well no.=8437) stood at 96.9%.
For `CCCCC/C=C\C/C=C\C/C=C\C/C=C\CCCC(=O)NCCO` [Anandamide (20:4, n-6)], the remaining activity at 1.25 µM in test [1] (Well no.=4290) was found to be 99.3%. Besides, the remaining activity at 3.75 µM in test [2] (Well no.=4290) was 93%.
On to `CC(C)(C#N)c1cc(Cn2cncn2)cc(C(C)(C)C#N)c1` [Anastrozole], for which the remaining activity at 1.25 µM in test [1] (Well no.=1858) came out at 101%. The remaining activity at 3.75 µM in test [2] (Well no.=1858) stood at 102%.
Turning to `N=c1ccn2c(n1)O[C@H]1[C@H](O)[C@@H](CO)O[C@H]12` [Ancitabine hydrochloride], the remaining activity at 1.25 µM in test [1] (Well no.=294) was 98.8%. Moreover, the remaining activity at 3.75 µM in test [2] (Well no.=294) was determined as 93.7%.
On to `CC(=O)Nc1ccc(OC[C@](C)(O)C(=O)Nc2ccc([N+](=O)[O-])c(C(F)(F)F)c2)cc1` [Andarine (GTX-007)], for which, in test [1] (Well no.=5053), the remaining activity at 1.25 µM worked out at 102%. Further, the remaining activity at 3.75 µM in test [2] (Well no.=5053) was 104%.
Take `C=C1CC[C@@H]2[C@](C)(CO)[C@H](O)CC[C@@]2(C)[C@@H]1C/C=C1/C(=O)OC[C@H]1O` [Andrographolide]: in test [1] (Well no.=3435), the remaining activity at 1.25 µM turned out to be 93.4%. The remaining activity at 3.75 µM in test [2] (Well no.=3435) worked out at 96.9%.
With `C[C@]12CC[C@@H](O)C[C@@H]1CC[C@@H]1[C@@H]2CC[C@]2(C)C(=O)CC[C@@H]12` [Androsterone], the figures for the remaining activity at 1.25 µM in test [1] (Well no.=298) and in test [1] (Well no.=6435) were 98.5% and 99.9%, respectively. For the same compound, the remaining activity at 3.75 µM in test [2] (Well no.=298) is 99.3%; in test [2] (Well no.=6435), 97.6%.
`COc1ccc(-c2cc(=S)ss2)cc1` [Anethole trithione]: the remaining activity at 1.25 µM in test [1] (Well no.=4132) came to 93.9%. In addition, in test [2] (Well no.=4132), the remaining activity at 3.75 µM worked out at 96.6%.
`C/C=C/c1ccc(OC)cc1` [Anethole, trans-]: the remaining activity at 1.25 µM in test [1] (Well no.=1916) was determined as 97.9%. Besides, in test [2] (Well no.=1916), the remaining activity at 3.75 µM was found to be 95.1%.
As for `COc1ccc(-c2cc(=S)ss2)cc1` [Anethole-trithione], the remaining activity at 1.25 µM in test [1] (Well no.=1856) is 91.9%. Moreover, in test [2] (Well no.=1856), the remaining activity at 3.75 µM is 92.4%.
Consider `CC[C@H](C)[C@H](NC(=O)[C@H](Cc1ccc(O)cc1)NC(=O)[C@@H](NC(=O)[C@H](CCCNC(=N)N)NC(=O)[C@@H](N)CC(=O)O)C(C)C)C(=O)N[C@@H](Cc1c[nH]cn1)C(=O)N1CCC[C@H]1C(=O)O` [Angiotensin (1-7)], for which the remaining activity at 1.25 µM in test [1] (Well no.=6176) came out at 96.1%; in test [1] (Well no.=8368), 99.7%. The remaining activity at 3.75 µM in test [2] (Well no.=6176) was 96.5%; in test [2] (Well no.=8368), 96.1%.
With `CC[C@H](C)[C@H](NC(=O)[C@H](Cc1ccc(O)cc1)NC(=O)[C@@H](NC(=O)[C@H](CCCNC(=N)N)NC(=O)[C@@H](N)CC(=O)O)C(C)C)C(=O)N[C@@H](Cc1cnc[nH]1)C(=O)N1CCC[C@H]1C(=O)N[C@@H](Cc1ccccc1)C(=O)O` [Angiotensin II human], in test [1] (Well no.=8345), the remaining activity at 1.25 µM stood at 93.9%. In test [2] (Well no.=8345), the remaining activity at 3.75 µM amounted to 97.1%.
With `COc1ccc(C(=O)N2CCCC2=O)cc1` [Aniracetam], the remaining activity at 1.25 µM in test [1] (Well no.=156) came to 102%; in test [1] (Well no.=1889), 95.1%. The remaining activity at 3.75 µM in test [2] (Well no.=156) came to 108%; in test [2] (Well no.=1889), 95.2%.
As for `CN1[C@H]2C[C@H](OC(=O)[C@H](CO)c3ccccc3)C[C@@H]1[C@@H](O)C2` [Anisodamine], the remaining activity at 1.25 µM in test [1] (Well no.=3474) amounted to 96.3%. Also, the remaining activity at 3.75 µM in test [2] (Well no.=3474) came to 92.3%.
Turning to `Cn1cncc1C[C@H](NC(=O)CCN)C(=O)O` [Anserine], the remaining activity at 1.25 µM was determined as 102% in test [1] (Well no.=6581) and 91.9% in test [1] (Well no.=7890). In addition, the remaining activity at 3.75 µM in test [2] (Well no.=6581) is 103%; in test [2] (Well no.=7890) it was 95.1%.
Turning to `c1ccc(CN(CC2=NCCN2)c2ccccc2)cc1` [Antazoline (hydrochloride)], the remaining activity at 1.25 µM in test [1] (Well no.=7425) amounted to 112%. In test [2] (Well no.=7425), the remaining activity at 3.75 µM was 102%.
On to `CNc1ccc2oc(C[C@H]3O[C@@]4(CC[C@H]3C)O[C@H]([C@H](C)C(=O)c3ccc[nH]3)[C@H](C)C[C@H]4C)nc2c1C(=O)O` [Antibiotic A-23187], for which the remaining activity at 1.25 µM in test [1] (Well no.=3079) was determined as 103%. In addition, in test [2] (Well no.=3079), the remaining activity at 3.75 µM worked out at 104%.
For the compound `CCCCCC[C@H]1C(=O)O[C@H](C)[C@H](NC(=O)c2cccc(NC=O)c2O)C(=O)O[C@@H](C)[C@@H]1OC(=O)CC(C)C` [Antimycin A1], the remaining activity at 1.25 µM in test [1] (Well no.=3158) is 98.9%. Besides, in test [2] (Well no.=3158), the remaining activity at 3.75 µM was determined as 98.6%.
